Source: patent US20260263401A1, “Topical composition and uses thereof” (UNIVERSIDADE DE COIMBRA, priority 2022, published 2026)

Assays:
[1] = test system: Poly-L-Lysine Hydrobromide (PLL); experiment: Lysine depletion protocol (in chemico reactivity towards lysine); settings: 20 mM molecule incubated 1 h with DNFB 5 mM; FIG. 1B
Description: In an embodiment, a Lysine depletion Protocol—“in house development protocol” was applied, comprising: Dissolve 0.01 g of Poly-L-Lysine Hydrobromide (PLL) (Sigma, P1399) in 100 mL of purified water (use within 2 months). Filter the solution with a syringe filter to remove aggregates and store ate 4° C. for further use. For plate coating add 50 μL of PLL to each well of the 96 black bottom glass microplate (Corning ref 45806) and incubate for 2 hours at 37° C. or 24 h at room temperature.
In an embodiment, after the coating procedure, the contents of the plate were discarded into a sink and the plate is washed 3 times with 200 μL of PBS per well. Blot any residual PBS by firmly tapping the plate upside-down on absorbent paper. 20 mM of each potential ACD inhibitory molecule/mixture is added and incubated with 70 μl of the strong skin sensitizer 1-fluoro-2,4-dinitrobenzene (DNFB) (5 mM in DMSO) for 1h; the mixture was transferred to the plate and incubated for 24 h at 37° C. The contents of the plate were discarded and the wells were washed 3 times with PBS as previously reported. 70 μL of 10 μM Fluorescein-5-Ex-Succinimidyl Ester (FSE) were added and incubated for 1 h in the dark at 37° C. The contents of the plate were discarded; the wells were washed 3 times with PBS as previously stated. The fluorescence was read in a microplate reader (Exc 485±20 nm and Em 530±30 nm). Synergy™ HT plate reader (BioTek Instruments, Inc., Winooski, VT, USA): Bottom read with a sensibility of 50. […]
In an embodiment, Reference control A is made with the solvent DMSO, with incubation with FSE and is used to calculate the maximum fluorescence or absorbance in the presence of LYS. […]
In an embodiment, Test chemicals were pre-weighted into 1.5 mL test tubes and dissolved in 1 mL of DMSO to prepare a 100 mM solution immediately before use. The weight of the test chemical to be added to the vial was determined based on the molecular weight and purity. […]
In an embodiment, for the data Analysis the percentage of peptide depletion is determined by using the following formula: […]

[2] = Cysteine depletion protocol (glutathione in solution depletion); settings: FIG. 1A
Description: In an embodiment, Cysteine depletion Protocol-Glutathione in solution depletion protocol—“in house development protocol” was applied: • In a test tube, mix 10 μL of the 100 mM test chemical solution with 190 μL of GSH solution (20 μL of GSH 2 mM and 170 μL of PB) and Incubated at RT, protected from light, for 1 h in a tube roller (40 rpm) • […]; [test chemical]f=5 mM; [GSH]f=0.2 mM; • 20 μL of Ellman's reagent 10 mM, a thiol sensitive colorimetric reagent was added. Mix gently by tapping manually in the test tube and incubate for 10 min at RT, in a test tube rotator protected from light; • The absorbance was read in a microplate reader at 405 nm. • Note: For each assay, a fresh Glutathione stock of 50 mM (0.00768 g in 500 μL of PBS) and the second stock of 2 mM in PBS (2 μL of the […] solution+48 μl of PBS) were freshly prepared.
In an embodiment, Control and Test Chemical Preparation was applied: • DNFB is used as the positive control for the assay in every assay run. For the negative control LA is used and for the reference control three types of reference controls are included in each study: • Reference control A is made with the solvent DMSO, with incubation with Ellman's reagent and is used to calculate the maximum fluorescence or absorbance in the presence of CYS containing peptides. […]
Test Chemicals: In an embodiment, test chemicals were pre-weighted into 1.5 mL test tubes and dissolved in 1 mL of DMSO to prepare a 100 mM solution immediately before use. The weight of the test chemical to be added to the vial is determined based on the molecular weight and purity. […]
In an embodiment, for the data analysis, the percent depletion of peptide is determined by using the following formula: […]

[3] = test system: keratinocyte cell line (HaCat); experiment: Metabolic activity of human keratinocytes (Resazurin Assay); format: cell-based

Row | Structure (SMILES) | reactivity of the strong allergen DNFB towards lysine (Lysine depletion) [1] | reactivity of the strong allergen DNFB towards cysteine (Glutathione depletion) [2] | cytotoxicity (metabolic activity) [3]
1 | NCCCC[C@H](N)C(=O)O [LYS, lysine] | significantly inhibit | significantly inhibit | do not display cytotoxicity
2 | CC(=O)N[C@@H](CS)C(=O)O [NAC, n-acetyl cysteine] | significantly inhibit | significantly inhibit | do not display cytotoxicity
